From ChEMBL document CHEMBL1137795, “Bioactive compounds from aquatic and terrestrial sources” (J Nat Prod, 1990)
≈ marks a conversion by molar mass, not a printed value. Calls of active or inactive are those of the source. No cut-off for these calls is given here. Numbered stars: 1 amine (or outer) side, 2 acyl side, 3 side chain; on linkers, the order of the positions; unused ones are H or OH. Bridge positions count the residues as written; N and C are the ends. Square brackets hold non-standard residues; d marks the D form. Peptide text beside a SMILES is read from it. X1 = CC[C@H](C)[C@@H](N[*:1])[C@@H](O)CC(=O)O[C@H](C(=O)[C@H](C)C(=O)[*:2])C(C)C; NMeY = CN[C@@H](Cc1ccc(O)cc1)C(=O)O; dNMeL = CN[C@H](CC(C)C)C(=O)O; Lac = C[C@H](O)C(=O)O

Legend:
[1] = tested on: Vesicular stomatitis virus; assay: Antiviral activity against VSV assessed as reduction in plaque formation at 100 ug; type: functional, organism-based
[2] = tested on: L1210; assay: Cytotoxicity against mouse L1210 cells; type: functional, cell-based
[3] = tested on: Vesicular stomatitis virus; assay: Antiviral activity against VSV assessed as reduction in plaque formation at 100 ng; type: functional, organism-based
[4] = tested on: Human alphaherpesvirus 1; assay: Antiviral activity against HSV1 assessed as reduction in plaque formation at 30 ng; type: functional, organism-based
[5] = tested on: Vesicular stomatitis virus; assay: Antiviral activity against VSV assessed as reduction in plaque formation at 30 ng; type: functional, organism-based
[6] = tested on: Human alphaherpesvirus 1; assay: Antiviral activity against HSV1 assessed as reduction in plaque formation at 100 ug; type: functional, organism-based
[7] = tested on: Human alphaherpesvirus 1; assay: Antiviral activity against HSV1 assessed as reduction in plaque formation at 10 ug; type: functional, organism-based
[8] = tested on: Vesicular stomatitis virus; assay: Antiviral activity against VSV assessed as reduction in plaque formation at 20 ng; type: functional, organism-based
[9] = tested on: Human alphaherpesvirus 1; assay: Antiviral activity against HSV1 assessed as reduction in plaque formation at 20 ng; type: functional, organism-based
[10] = tested on: Human alphaherpesvirus 1; assay: Antiviral activity against HSV1 assessed as reduction in plaque formation at 780 ng; type: functional, organism-based
[11] = tested on: P388; assay: In vivo antitumor activity against mouse P388 cells at 15 ug/kg relative to control; type: functional
[12] = tested on: B16; assay: In vivo antitumor activity against mouse B16 cells at 10 ug/kg relative to control; type: functional
[13] = tested on: P388; assay: In vivo antitumor activity against mouse P388 cells at 3.8 ug/kg relative to control; type: functional
[14] = tested on: P388; assay: In vivo antitumor activity against mouse P388 cells at 250 ug/kg relative to control; type: functional

## NC(=O)c1ncn([C@@H]2O[C@H](CO)[C@@H](O)[C@H]2O)n1
[1]
  Activity: Active

## CC[C@H](C)[C@@H]1NC(=O)[C@@H](NC(=O)[C@@H](CC(C)C)N(C)C(=O)[C@@H]2CCCN2C(=O)[C@H](C)OC(C)=O)[C@@H](C)OC(=O)[C@H](Cc2ccc(OC)cc2)N(C)C(=O)[C@@H]2CCCN2C(=O)[C@H](CC(C)C)NC(=O)[C@@H](C)C(=O)[C@H](C(C)C)OC(=O)C[C@@H]1OC(C)=O
[2]
  IC50: 1.6 ng/mL (≈ 1.34 nM)

## CCC(=O)O[C@@H]1C[C@@]2(O)CC[C@@H]3[C@H]([C@H](O)C(=O)[C@]4(C)[C@@H](c5ccc(=O)oc5)CC[C@]34O)[C@@]2(C)C[C@@H]1OC(C)=O
[3]
  Activity: inactive
[4]
  Activity: inactive
[5]
  Activity: inactive

## CC[C@H](C)[C@@H]1NC(=O)[C@@H](N2CN(C)[C@H](CC(C)C)C2=O)[C@@H](C)OC(=O)[C@H](Cc2ccc(OC)cc2)N(C)C(=O)[C@@H]2CCCN2C(=O)[C@H](CC(C)C)NC(=O)[C@@H](C)C(=O)[C@H](C(C)C)OC(=O)C[C@@H]1O [METHYLENE DIDEMNIN A]
[2]
  IC50: 6.5 ng/mL (≈ 6.8 nM)

## CCCCCCC[C@@H](O)CC(=O)N[C@@H](CCC(N)=O)C(=O)N[C@@H](CCC(N)=O)C(=O)N[C@@H](CCC(=O)O)C(=O)O[C@@H](C)C(=O)N1CCC[C@H]1C(=O)N(C)[C@H](CC(C)C)C(=O)N[C@@H]1C(=O)N[C@@H]([C@@H](C)CC)[C@@H](O)CC(=O)O[C@@H](C(C)C)C(=O)[C@H](C)C(=O)N[C@@H](CC(C)C)C(=O)N2CCC[C@H]2C(=O)N(C)[C@@H](Cc2ccc(OC)cc2)C(=O)O[C@@H]1C [DIDEMNIN X]
[2]
  IC50: 4.4 ng/mL (≈ 2.64 nM)

## CC[C@H](C)[C@@H]1NC(=O)[C@@H](NC(=O)[C@@H](CC(C)C)N(C)C(C)=O)[C@@H](C)OC(=O)[C@H](Cc2ccc(OC)cc2)N(C)C(=O)[C@@H]2CCCN2C(=O)[C@H](CC(C)C)NC(=O)[C@@H](C)C(=O)[C@H](C(C)C)OC(=O)C[C@@H]1O [N-ACETYLDIDEMNIN A]
[2]
  IC50: 2.4 ng/mL (≈ 2.44 nM)

## CC[C@H](C)[C@@H]1NC(=O)[C@@H](NC(=O)[C@@H](CC(C)C)N(C)C=O)[C@@H](C)OC(=O)[C@H](Cc2ccc(OC)cc2)N(C)C(=O)[C@@H]2CCCN2C(=O)[C@H](CC(C)C)NC(=O)[C@@H](C)C(=O)[C@H](C(C)C)OC(=O)C[C@@H]1O [DIDEMNIN G]
[2]
  IC50: 6 ng/mL (≈ 6.18 nM)

## CC[C@H](C)[C@@H]1NC(=O)[C@@H](NC(=O)[C@@H](CC(C)C)NC)[C@@H](C)OC(=O)[C@H](Cc2ccc(OC)cc2)N(C)C(=O)[C@@H]2CCCN2C(=O)[C@H](CC(C)C)NC(=O)[C@@H](C)C(O)[C@H](C(C)C)OC(=O)C[C@@H]1O (some centres undefined) [DIHYDRODIDEMNIN A]
[2]
  IC50: 520 ng/mL (≈ 550 nM)

## Nc1ncnc2c1ncn2[C@@H]1O[C@H](CO)[C@@H](O)[C@@H]1O
[6]
  Activity: Active
[7]
  Activity: inactive

## CC(=O)O[C@H]1C[C@]2(C)[C@H]3[C@H](O)C(=O)[C@]4(C)[C@@H](c5ccc(=O)oc5)CC[C@]4(O)[C@@H]3CC[C@]2(O)C[C@H]1OC(C)=O
[8]
  AC50: Not Active
[9]
  Activity: inactive
[10]
  Activity: Active

## COc1cc2c(cc1O)CCN[C@]21CS[C@@H]2c3c(OC(C)=O)c(C)c4c(c3[C@H](COC1=O)N1[C@@H]2[C@H]2c3c(cc(C)c(OC)c3O)C[C@@H]([C@@H]1O)N2C)OCO4 [TRABECTEDIN]
[11]
  T/C: 167%
[2]
  IC50: 0.5 ng/mL (≈ 0.656 nM)

## CC[C@H](C)[C@@H]1NC(=O)[C@@H](NC(=O)[C@@H](CC(C)C)N(C)C(=O)[C@@H]2CCCN2C(=O)[C@H](C)OC(=O)[C@H](CCC(=O)O)NC(=O)[C@H](CCC(N)=O)NC(=O)[C@@H](N)CCC(N)=O)[C@@H](C)OC(=O)[C@H](Cc2ccc(OC)cc2)N(C)C(=O)[C@@H]2CCCN2C(=O)[C@H](CC(C)C)NC(=O)[C@@H](C)C(=O)[C@H](C(C)C)OC(=O)C[C@@H]1O [DIDEMNIN E]
[2]
  IC50: 3 ng/mL (≈ 2 nM)

## CC[C@H](C)[C@@H]1NC(=O)[C@@H](NC(=O)[C@@H](CC(C)C)N(C)C(=O)[C@@H]2CCCN2C(=O)[C@H](C)OC(C)=O)[C@H](C)OC(=O)[C@H](Cc2ccc(OC)cc2)N(C)C(=O)[C@@H]2CCCN2C(=O)[C@H](CC(C)C)NC(=O)[C@@H](C)C(=O)[C@H](C(C)C)OC(=O)C[C@@H]1O [NORDIDEMNIN B]
[2]
  IC50: 7.8 ng/mL (≈ 6.76 nM)

## CC[C@H](C)[C@H]1NC(=O)[C@@H](NC(=O)[C@@H](CC(C)C)NC)[C@@H](C)OC(=O)[C@H](Cc2ccc(OC)cc2)N(C)C(=O)[C@@H]2CCCN2C(=O)[C@H](CC(C)C)NC(=O)[C@@H](C)C(=O)[C@H](C(C)C)OC(=O)C[C@@H]1O [DIDEMNIN A] (H-[dNMeL]T[X1]LP[NMeY](Me); ester 2-C)
[2]
  IC50: 14 ng/mL (≈ 14.8 nM)

## CC[C@H](C)[C@@H]1NC(=O)[C@@H](NC(=O)[C@@H](CC(C)C)N(C)C(C)=O)[C@@H](C)OC(=O)[C@H](Cc2ccc(OC)cc2)N(C)C(=O)[C@@H]2CCCN2C(=O)[C@H](CC(C)C)NC(=O)[C@@H](C)C(=O)[C@H](C(C)C)OC(=O)C[C@@H]1OC(C)=O [N,O-DIACETYLDIDEMNIN A]
[2]
  IC50: 15 ng/mL (≈ 14.6 nM)

## COc1cc2c(cc1O)CCN[C@]21CS[C@@H]2c3c(OC(C)=O)c(C)c4c(c3[C@H](COC1=O)N1[C@@H]2[C@@H]2N[C@@H](Cc3cc(C)c(OC)c(O)c32)[C@@H]1O)OCO4 [ECTEINASCIDIN 729]
[12]
  T/C: 246%
[13]
  T/C: 214%

## CC[C@H](C)[C@H]1NC(=O)[C@@H](NC(=O)[C@@H](CC(C)C)N(C)C(=O)[C@H](C)O)[C@@H](C)OC(=O)[C@H](Cc2ccc(OC)cc2)N(C)C(=O)[C@@H]2CCCN2C(=O)[C@H](CC(C)C)NC(=O)[C@@H](C)C(=O)[C@H](C(C)C)OC(=O)C[C@@H]1O [DIDEMNIN C] (H-[Lac][dNMeL]T[X1]LP[NMeY](Me); ester 3-C)
[2]
  IC50: 11 ng/mL (≈ 10.8 nM)

## CC(=O)O[C@H]1C[C@]2(C)[C@H]3[C@H](O)C(=O)[C@]4(C)[C@@H](c5ccc(=O)oc5)CC[C@]4(O)[C@@H]3CC[C@]2(O)C[C@H]1O
[3]
  Activity: inactive

## CCCCCCC[C@@H](O)CC(=O)N[C@@H](CCC(N)=O)C(=O)N[C@@H](CCC(N)=O)C(=O)N[C@@H](CCC(N)=O)C(=O)N[C@@H](CCC(=O)O)C(=O)O[C@@H](C)C(=O)N1CCC[C@H]1C(=O)N(C)[C@H](CC(C)C)C(=O)N[C@@H]1C(=O)N[C@@H]([C@@H](C)CC)[C@@H](O)CC(=O)O[C@@H](C(C)C)C(=O)[C@H](C)C(=O)N[C@@H](CC(C)C)C(=O)N2CCC[C@H]2C(=O)N(C)[C@@H](Cc2ccc(OC)cc2)C(=O)O[C@@H]1C [DIDEMNIN Y]
[2]
  IC50: 5.6 ng/mL (≈ 3.12 nM)

## COc1cc2c(cc1O)CCN[C@]21CS[C@@H]2c3c(OC(C)=O)c(C)c4c(c3[C@H](COC1=O)N1C[C@@H]3Cc5cc(C)c(OC)c(O)c5[C@H]([C@H]21)N3C)OCO4 [ECTEINASCIDIN 745]
[14]
  T/C: 111%
[2]
  IC50: 88 ng/mL (≈ 118 nM)

## CC[C@H](C)[C@@H]1NC(=O)[C@@H](NC(=O)[C@@H](CC(C)C)N(C)C(=O)[C@@H]2CCCN2C(=O)[C@H](C)OC(=O)[C@H](CCC(=O)O)NC(=O)[C@H](CCC(N)=O)NC(=O)[C@H](CCC(N)=O)NC(=O)[C@@H](N)CCC(N)=O)[C@@H](C)OC(=O)[C@H](Cc2ccc(OC)cc2)N(C)C(=O)[C@@H]2CCCN2C(=O)[C@H](CC(C)C)NC(=O)[C@@H](C)C(=O)[C@H](C(C)C)OC(=O)C[C@@H]1O [DIDEMNIN D]
[2]
  IC50: 5 ng/mL (≈ 3.08 nM)

## Nc1nc2c(ncn2COCCO)c(=O)[nH]1
[6]
  Activity: Active
[7]
  Activity: Active

## CC(=O)O[C@H]1C[C@]2(C)[C@H]3[C@H](O)C(=O)[C@]4(C)[C@@H](c5ccc(=O)oc5)CC[C@]4(O)[C@@H]3CC[C@]2(O)C[C@H]1OC(=O)C(C)C
[4]
  Activity: inactive
[5]
  Activity: inactive

## CC(=O)O[C@@H]1C[C@@]2(O)CC[C@@H]3[C@H]([C@H](O)C(=O)[C@]4(C)[C@@H](c5ccc(=O)oc5)CC[C@]34O)[C@@]2(C)C[C@@H]1O
[3]
  Activity: inactive
